The test system of test [1] is HaCaT (immortalized human keratinocytes). Nature of the test: MTT dye-reduction cytotoxicity assay (ISO 10993-5). The test is classed as cell-based. The following applies: solvent alone, n = 3; for IC50 (CI 95%): 72 h incubation; for MTC (maximum tolerated concentration): 72 h, at least 70% of cells viable. The source says:
The cell lines utilized in this study included the human tumor lines A-375 (malignant melanoma) and A-431 (non-melanoma epidermoid squamous skin carcinoma) as well as the models for non-tumorigenic cells—HaCaT (immortalized human keratinocytes) and CCL-1^TM (transformed mouse fibroblasts, NCTC clone 929). The first three cell lines were obtained from CLS Cell Lines Service (GmbH, Eppelheim, Germany). CCL-1^TM was purchased from the American Type Culture Collection (ATCC, Manassas, VA, USA). Cells were maintained in a controlled environment—sterile cell culture flasks in a CO2 incubator Panasonic MCO-18AC (Panasonic Healthcare co., ltd, Oizumi-Machi, Japan) at 37 °C and a humidified atmosphere containing 5% CO2. CCL-1 was cultured in MEM with 10% heat-inactivated horse serum and 2 mM L-glutamine, and the cell culture medium for the rest of the cell lines was DMEM-HG with 4.5 g/L glucose with the addition of 10% heat-inactivated fetal bovine serum and 4 mM L-glutamine. Pen/strep (concentration of penicillin G sodium 10^5 Units/L and of streptomycin sulfate 100 mg/L) was added to both culture media. The cell lines were maintained as an adherent monolayer in a log phase. The cells were sub-cultivated about 1–3 times per week after the monolayer reached 80–90% confluence. The medium was removed from the flask, and the cell monolayer was washed with 3–5 mL PBS. The cells were incubated with 0.05% EDTA in PBS for 8–10 min, followed by the next step where all cell lines were subjected to enzyme cell detachment. HaCaT and CCL-1 monolayers were detached with 1 mL solution of trypsin/EDTA (0.1%/0.05% for HaCaT and 0.25% (w/v)/0.53 mM for CCL-1) and incubated for 2–5 min at 37 °C (for HaCaT) or at room temperature (for CCL-1 cells), whereas Accutase® was used for A-375 and A-431 lines. The incubation lasted until the separation and dispersion of the cells in the monolayer were observed using light microscopy. In the end, all cell lines were resuspended in 10 mL medium and centrifuged for 3 min at 300× g. The cell pellet was resuspended in fresh medium and sub-cultivated at a seeding density of 1.0 × 10^4 cells/cm^2.
The MTT test was performed in order to determine the median inhibitory (IC50) and MTC concentrations of the solvents and PAC according to Annex C, ISO 10993-5 [2, 21]. Briefly, 100 µL of the cell suspension (1 × 10^5 cells/mL) were seeded per well in 96-well plates with a flat bottom. The cells were incubated for 24 h, allowing them to enter the log phase of their growth. On the 24th hour, the cells were treated with the solvents or CystiCran® solutions in concentrations ranging between 0.004% and 2% volume fraction (v/v) and incubated further for 72 h. The incubation periods are following the recommendations of the FDA guide for the use of ISO 10993-1 [1]. At the end of the incubation period, 10 µL of an MTT solution (5 mg/mL) were added to each well, and the plates were kept at 37 °C for 2 hours. Thereafter, the medium was aspirated, and the formed formazan crystals were dissolved in 100 μL/well of 2-propanol supplemented with 5% formic acid. The same solvent was used as a blank. Untreated cells were considered as a negative control. […] The absorption was measured at 540 nm (reference filter at 690 nm) on a microplate reader ELx800 (BioTek Instruments, Inc., Winooski, VT, Winooski, VT, USA).
The IC50 values from the MTT assay were evaluated with a non-linear regression analysis (Curve fit, GraphPad Prizm 6.01 software, GraphPad Software Inc., San Diego, CA, USA) using sigmoidal concentration–response curves. The cell viability is presented as a percentage of the untreated control. At least four wells were seeded for every concentration. Three independent assays were performed (n = 3).
On the technique in general: Formazan colour is commonly taken as a measure of viable cells.

Test [2] relates to S. Aureus MRSA NBIMCC 8327. Nature of the test: Broth microdilution MIC/MBC. In kind it is cell-based, Staphylococcus aureus. The following applies: 24 h exposure; v/v; n = 3. The source says:
(§1) The bacterial strains used for AST of the solvents included: Staphylococcus aureus (ATCC 29213), Staphylococcus aureus—MRSA (NBIMCC 8327—resistant to methicillin and oxacillin, National Bulgarian Collection for Industrial Microorganisms and Cell Cultures, Sofia, Bulgaria), Streptococcus pyogenes (SAIMC 10535, Collection of the Stephan Angeloff Institute of Microbiology, Sofia, Bulgaria), Enterococcus faecalis (ATCC 29212), Escherichia coli (ATCC 35218), Pseudomonas aeruginosa (ATCC 27853), and Yersinia enterocolitica (IP864 O:3, Collection of Institut Pasteur, Paris, France). The selected strains are the most often investigated ones in the AST research studies in correspondence with the standard ISO 20776-1 Part 1: Reference method for testing the in vitro activity of antimicrobial agents against rapidly growing aerobic bacteria involved in infectious diseases. The antimycotic activity was tested on Candida albicans (CBS 562, Utrecht, The Netherlands). The strains S. aureus, MRSA, E. coli and E. faecalis were grown on Mueller–Hinton broth/agar (MHB/MHA); S. pyogenes, P. aeruginosa, Y. enterocolitica and C. albicans were grown on brain heart infusion (BHI) broth/agar; E. coli was also grown on Luria–Bertani broth/agar (LBB/LBA).
(§2) The minimum inhibitory concentration (MIC) for each solvent was estimated by the broth microdilution method (BMD) in 96-well microplates, following ISO 20776/1-2006 [3] and CLSI protocols. Briefly, a standardized bacterial inoculum was prepared from each bacterial species by suspending 3–4 colonies from a pure culture into 4 mL sterile saline. The turbidity of the inocula was adjusted to McFarland 0.5 (1.0 × 10^8 CFU/mL, λ = 600 nm), and 50 µL were resuspended in 10 mL of the appropriate culture medium for each strain. The bacterial inocula were added to microtiter trays containing equivalent volumes of medium loaded with the relevant solvent in concentrations varying from 0.025 to 25% volume fraction. The final volume of each sample was 100 µL/well. The plates were incubated at 37 °C for 24 h. The pure culture medium served as a negative control. Every MIC was evaluated visually as the lowest concentration without visible growth. […] MBC was defined as the lowest compound’s concentration reducing the colony growth of the initial bacterial inoculum by ≥ 99.9%.

For a further test, the system named is S. Aureus ATCC 29213. The experiment in a line: Broth microdilution MIC/MBC. The following applies: 24 h exposure; v/v; n = 3. The test is classed as cell-based, Staphylococcus aureus.
Text: as §1, §2
On the technique in general: Dilution methods test growth across graded concentrations, often in twofold steps.

Another test relates to S. pyogenes SAIMC 10535. Nature of the test: Broth microdilution MIC/MBC. The test is classed as cell-based, Streptococcus pyogenes. The following applies: 24 h exposure; v/v; n = 3.
Text: as §1, §2

Bounds are passed on as bounds.

Consider three molecules from publication PMC8143291, “Cytotoxicity and Microbicidal Activity of Commonly Used Organic Solvents: A Comparative Study and Application to a Standardized Extract from Vaccinium macrocarpon” (Toxics, 2021).

As to `C[S+](C)[O-]` [DMSO, dimethyl sulfoxide], the “IC50 (CI 95%)” value in test [1] was 1.25 % (v/v). In addition, the MBC (in test [2]; against S. Aureus ATCC 29213; against S. pyogenes SAIMC 10535) was above 25% each time. Besides, the MIC in test [2] turned out to be 25%; with S. Aureus ATCC 29213, 25%; in the test with S. pyogenes SAIMC 10535 it was 12.5%.

Regarding `CCO` [EtOH, ethanol], the “MTC (maximum tolerated concentration)” value in test [1] is on record as > 2 % (v/v). For the same molecule, the “IC50 (CI 95%)” value in test [1] is given as > 2 % (v/v). Also, the MBC (in test [2]; in the test with S. Aureus ATCC 29213; in the test with S. pyogenes SAIMC 10535) was above 25% in each case. Moreover, the MIC (in test [2]; against S. Aureus ATCC 29213; in the test on S. pyogenes SAIMC 10535) was above 25% throughout.

Turning to “polyethylene glycol of average molecular weight 400 [PEG-400]”, the “MTC (maximum tolerated concentration)” value in test [1] is 0.41 % (v/v). Further, the MBC in test [2] was 25%; in the test on S. Aureus ATCC 29213 it was above 25%; in the test with S. pyogenes SAIMC 10535 it was above 25%. Moreover, the MIC in test [2] is reported as 25%; with S. Aureus ATCC 29213, above 25%; in the test with S. pyogenes SAIMC 10535, 25%.
